The structures appear in SMILES notation.

Data on 17 compounds can be found in US9012489B2, “Phenyl-3-aza-bicyclo[3.1.0]hex-3-yl-methanones and the use thereof as medicament” (Boehringer Ingelheim International GmbH, priority 2011, dated 2015).

In the test the target is T1, GlyT1 transporter (Homo sapiens, UniProt P48067).
T1 construct: endogenously expressing the GlyT1 transporter; host or cells: SK-N-MC human neuroblastoma cells
T1 sequence (P48067 1-706): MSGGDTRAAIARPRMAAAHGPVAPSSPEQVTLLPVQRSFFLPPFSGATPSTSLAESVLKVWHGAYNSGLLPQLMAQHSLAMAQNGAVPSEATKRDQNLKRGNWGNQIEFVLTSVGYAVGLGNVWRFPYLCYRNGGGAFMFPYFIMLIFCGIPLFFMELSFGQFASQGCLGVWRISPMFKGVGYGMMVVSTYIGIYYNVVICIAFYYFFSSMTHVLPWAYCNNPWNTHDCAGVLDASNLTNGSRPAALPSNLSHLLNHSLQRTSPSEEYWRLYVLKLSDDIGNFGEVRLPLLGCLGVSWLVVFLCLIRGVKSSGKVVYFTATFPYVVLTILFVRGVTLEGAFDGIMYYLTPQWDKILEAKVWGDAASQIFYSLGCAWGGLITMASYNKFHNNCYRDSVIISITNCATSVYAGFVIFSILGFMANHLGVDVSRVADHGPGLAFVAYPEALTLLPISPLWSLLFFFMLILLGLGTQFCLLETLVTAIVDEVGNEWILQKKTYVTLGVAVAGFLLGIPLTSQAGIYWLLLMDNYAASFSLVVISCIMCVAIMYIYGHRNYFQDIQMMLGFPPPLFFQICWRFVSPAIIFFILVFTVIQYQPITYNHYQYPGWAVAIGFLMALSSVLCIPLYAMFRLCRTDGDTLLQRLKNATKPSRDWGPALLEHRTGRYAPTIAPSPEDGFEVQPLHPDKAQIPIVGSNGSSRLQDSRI
The experiment in a line: GlyT1 assay: 3H-glycine uptake into SK-N-MC cells (Cytostar-T format). It is filed as cell-based. To be noted: glycine uptake in human SK-N-MC cells endogenously expressing GlyT1; 500 nM glycine, 1% DMSO, signal recorded over 60 min. The text has this: Cells expressing either endogenously the GlyT1 transporter like JAR cells (human placental choriocarcinoma cells; e.g. WO 2008/002583) or SK-N-MC cells (human neuroblastoma cells; Depoortere et al., 2005. Neuropsychopharmacology 30:1963-1985) or primary neurons or cells which have been transfected with a plasmid encoding the cDNA of a functional GlyT1 transporter and stably or transiently express GlyT1 (e.g. WO 2006/08200) can be used to monitor glycine uptake in cells. Different protocols for determination of the glycine uptake into the cells described above can be applied in order to identify and rank compounds which interfere with glycine uptake in the selected cell.
Compounds outlined in the examples below were characterized using human SK-N-MC cells (ATCC number HTB-10) endogenously expressing the GlyT1 transporter which is responsible for the uptake of glycine into these cells and the uptake of glycine into these cells is monitored using the Cytostar-T assay format (GE Healthcare, RPNQ0162) which is based on the radioactive glycine taken up by the cells and brought into proximity with the scintillant contained within the base of the plate. The radioactive decay is converted to a light signal based on the integration of the scintillation matrix into the assay plate. The uptake is recorded as kinetic and the slope of the measured counts over time is used to calculate IC50.
In detail, SK-N-MC cells are seeded into 96-well Cytostar-T assay plates at a density of 200,000 cells/well and grown for 16-18 hours to confluence in growth medium as recommended by ATCC. Before starting the assay, cells are washed once with HBSS (Hank's buffered salt solution; Sigma, H8264) cont. 5 mM alanine (referred in here as HBSS/Ala) and afterwards the following reagents are added: • 1. 80 μl/well HBSS/Ala • 2. 20 μl/well of HBSS/Ala containing 6× the concentration of compound in 6% DMSO • 3. approx. 5-10 min incubation • 4. 20 μl/well 3 μM glycine (^3H-glycine (Perkin Elmer, NET004001MC, specific activity: 52 Ci/mmol; diluted 1:1 with unlabelled glycine) in HBSS/Ala.
In the final assay, glycine concentration is 500 nM (250 nM derived from the ^3H-glycine Perkin Elmer, 250 nM unlabelled glycine), DMSO concentration is 1%.
The assay plate is immediately after addition of the ^3H-glycine placed into a Micro-Beta Counter (Perkin Elmer) and the signal is recorded over 60 min.
To calculate uptake, the slope in the linear range of the kinetics is determined using GraphPadPrism and for the different slopes at the selected concentrations IC50 are calculated by curve fitting using the software GraphPadPrism.
Maximal glycine uptake in every experiment is determined by incubation of SK-N-MC cells with substrate but without inhibitor. Unspecific uptake of glycine by the cells is determined by incubating the cells with substrate and a reference GlyT1 inhibitor e.g. 10 μM RG-1678 (Pinard et al., 2010, J. Med. Chem. 53(12):4603-14).
Compounds are diluted from 10 mM stocks and in general, for IC50 determination 8 compound concentrations are used.
`C[C@H](Oc1ccc(S(C)(=O)=O)cc1C(=O)N1CC2CC2(c2noc(C(C)(C)C(F)(F)F)n2)C1)C(F)(F)F` (mixture of isomers) [Example 12, [5-Methanesulfonyl-2-(2,2,2-trifluoro-1-methyl-ethoxy)-phenyl]-{1-[5-(2,2,2-trifluoro-1,1-dimethyl-ethyl)-[1,2,4]oxadiazol-3-yl]-3-aza-bicyclo[3.1.0]hex-3-yl}-methanone] showed an IC50 of 18 nM.

`C[C@H](Oc1ccc(S(C)(=O)=O)cc1C(=O)N1CC2CC2(c2noc(C3CC3)n2)C1)C(F)(F)F` (single isomer, unassigned) [Example 10, [1-(5-Cyclopropyl-[1,2,4]oxadiazol-3-yl)-3-aza-bicyclo[3.1.0]hex-3-yl]-[5-methanesulfonyl-2-(2,2,2-trifluoro-1-methyl-ethoxy)-phenyl]-methanone] displayed an IC50 of 42 nM.

`CC(C)Oc1ccc(S(C)(=O)=O)cc1C(=O)N1CC2CC2(c2noc(C(F)(F)F)n2)C1` (single isomer, unassigned) [Example 98, (2-Isopropoxy-5-methanesulfonyl-phenyl)-[1-(5-trifluoromethyl-[1,2,4]oxadiazol-3-yl)-3-aza-bicyclo[3.1.0]hex-3-yl]-methanone] came in with an IC50 of 1890 nM.

The compound `Cc1conc1C12CC1CN(C(=O)c1cc(S(C)(=O)=O)ccc1O[C@@H](C)C(F)(F)F)C2` (mixture of isomers) [Example 108, [5-Methanesulfonyl-2-(2,2,2-trifluoro-1-methyl-ethoxy)-phenyl]-[1-(4-methyl-isoxazol-3-yl)-3-aza-bicyclo[3.1.0]hex-3-yl]-methanone] yielded an IC50 of 10 nM.

In the case of `Cc1nc(C23CC2CN(C(=O)c2cc(S(C)(=O)=O)ccc2O[C@H](C)C(F)(F)F)C3)no1` (single isomer, unassigned) [Example 42, [5-Methanesulfonyl-2-(2,2,2-trifluoro-1-methyl-ethoxy)-phenyl]-[1-(5-methyl-[1,2,4]oxadiazol-3-yl)-3-aza-bicyclo[3.1.0]hex-3-yl]-methanone], the IC50 is 6 nM.

`C[C@H](Oc1ccc(S(C)(=O)=O)cc1C(=O)N1CC2CC2(c2noc(C3(C(F)(F)F)CC3)n2)C1)C(F)(F)F` (single isomer, unassigned) [Example 67, [5-Methanesulfonyl-2-(2,2,2-trifluoro-1-methyl-ethoxy)-phenyl]-{1-[5-(1-trifluoromethyl-cyclopropyl)-[1,2,4]oxadiazol-3-yl]-3-aza-bicyclo[3.1.0]hex-3-yl}-methanone] registered an IC50 of 100 nM.

`C[C@H](Oc1ccc(S(C)(=O)=O)cc1C(=O)N1CC2CC2(c2cc(C(F)(F)F)on2)C1)C(F)(F)F` (mixture of isomers) [Example 46, [5-Methanesulfonyl-2-(2,2,2-trifluoro-1-methyl-ethoxy)-phenyl]-[1-(5-trifluoromethyl-isoxazol-3-yl)-3-aza-bicyclo[3.1.0]hex-3-yl]-methanone] returned an IC50 of 29 nM.

For `C[C@H](Oc1ccc(S(C)(=O)=O)cc1C(=O)N1CC2CC2(c2noc(C3CC(F)(F)C3)n2)C1)C(F)(F)F` (single isomer, unassigned) [Example 60], the IC50 amounted to 372 nM.

`C[C@@H](Oc1ccc(S(C)(=O)=O)cc1C(=O)N1CC2CC2(c2coc(C3CC3)n2)C1)C(F)(F)F` (mixture of isomers) [Example 81, [1-(2-Cyclopropyl-oxazol-4-yl)-3-aza-bicyclo[3.1.0]hex-3-yl]-[5-methanesulfonyl-2-((S)-2,2,2-trifluoro-1-methyl-ethoxy)-phenyl]-methanone] yielded a concentration for half-maximal inhibition (IC50) of 6 nM.

`C[C@H](Oc1ccc(S(C)(=O)=O)cc1C(=O)N1CC2(C)CC2(c2noc(C(F)(F)F)n2)C1)C(F)(F)F` (mixture of isomers) [Example 157, [5-Methanesulfonyl-2-(2,2,2-trifluoro-1-methyl-ethoxy)-phenyl]-[1-methyl-5-(5-trifluoromethyl-[1,2,4]oxadiazol-3-yl)-3-aza-bicyclo[3.1.0]hex-3-yl]-methanone] displayed an IC50 of 147 nM.

`C[C@@H](Oc1ccc(S(C)(=O)=O)cc1C(=O)N1CC2CC2(c2csc(C(F)(F)F)n2)C1)C(F)(F)F` (single isomer, unassigned) [Example 31, [5-Methanesulfonyl-2-(2,2,2-trifluoro-1-methyl-ethoxy)-phenyl]-[1-(2-trifluoromethyl-thiazol-4-yl)-3-aza-bicyclo[3.1.0]hex-3-yl]-methanone] showed an IC50 of 1010 nM.

Compound `C[C@H](Oc1ccc(S(C)(=O)=O)cc1C(=O)N1CC2CC2(c2noc(C3(C)COC3)n2)C1)C(F)(F)F` (mixture of isomers) [Example 62, [5-Methanesulfonyl-2-(2,2,2-trifluoro-1-methyl-ethoxy)phenyl]-{1-[5-(3-methyl-oxetan-3-yl)-[1,2,4]oxadiazol-3-yl]-3-aza-bicyclo[3.1.0]hex-3-yl}-methanone] showed an IC50 of 10 nM.

With `C[C@@H](Oc1ccc(S(C)(=O)=O)cc1C(=O)N1CC2CC2(c2noc(C3(C(F)(F)F)CC3)n2)C1)C(F)(F)F` (single isomer, unassigned) [Example 70, [5-Methanesulfonyl-2-(2,2,2-trifluoro-1-methyl-ethoxy)-phenyl]-{1-[5-(1-trifluoromethyl-cyclopropyl)-[1,2,4]oxadiazol-3-yl]-3-aza-bicyclo[3.1.0]hex-3-yl}-methanone], the IC50 amounted to 155 nM.

`CS(=O)(=O)c1ccc(O[C@@H]2CCOC2)c(C(=O)N2CC3CC3(c3noc(C(F)(F)F)n3)C2)c1` (mixture of isomers) [Example 138, [5-Methanesulfonyl-2-(tetrahydro-furan-3-yloxy)-phenyl]-[1-(5-trifluoromethyl-[1,2,4]oxadiazol-3-yl)-3-aza-bicyclo[3.1.0]hex-3-yl]-methanone]: the half-maximal inhibitory concentration (IC50) stood at 261 nM.

In the case of `C[C@H](Oc1ccc(S(C)(=O)=O)cc1C(=O)N1CC2CC2(c2cccc(C(F)(F)F)n2)C1)C(F)(F)F` (mixture of isomers) [Example 54, [5-Methanesulfonyl-2-(2,2,2-trifluoro-1-methyl-ethoxy)-phenyl]-[1-(6-trifluoromethyl-pyridin-2-yl)-3-aza-bicyclo[3.1.0]hex-3-yl]-methanone], the IC50 turned out to be 16 nM.

In turn, `C[C@@H](Oc1ccc(S(C)(=O)=O)cc1C(=O)N1CC2CC2(c2nnc(C(F)(F)F)o2)C1)C(F)(F)F` (single isomer, unassigned) [Example 123, [5-Methanesulfonyl-2-(2,2,2-trifluoro-1-methyl-ethoxy)-phenyl]-[1-(5-trifluoromethyl-[1,3,4]oxadiazol-2-yl)-3-aza-bicyclo[3.1.0]hex-3-yl]-methanone] displayed an IC50 of 13 nM.

For the compound `C[C@H](Oc1ccc(S(C)(=O)=O)cc1C(=O)N1CC2CC2(c2ncc(C(F)(F)F)o2)C1)C(F)(F)F` (single isomer, unassigned) [Example 133, [5-Methanesulfonyl-2-(2,2,2-trifluoro-1-methyl-ethoxy)-phenyl]-[1-(5-trifluoromethyl-oxazol-2-yl)-3-aza-bicyclo[3.1.0]hex-3-yl]-methanone], half-maximal inhibition (IC50) was put at 403 nM.

As usually defined, the IC50 is the concentration at which inhibition is half-maximal. A high value points to a need for much substance.
